Data: publication PMC7589200, “Identification of Putative Non-Substrate-Based XT-I Inhibitors by Natural Product Library Screening” (Biomolecules, 2020)

Tests used:
[1] = test system: XYLT1 mRNA expression; assay: XYLT1 mRNA expression in NHDFs by qRT-PCR; format: cell-based, human; details: 48 h; for TGF-β1-mediated XYLT1 mRNA expression relative to TGF-β1 only: with TGF-β1 (5 μg/L)
Description: A former established cell culture model was utilized to investigate the effect of putative XT-I inhibitors on NHDFs. The inhibition studies were carried out with final inhibitor concentrations of 0.5, 1.0, 2.0 or 4.0 μM diluted in fully supplemented DMEM. In brief, unless otherwise stated, NHDFs were cultivated with a low density of 50 cells per mm^2 on a hard tissue culture substrate (100 × 20 mm dish) in fully supplemented DMEM with or without additional TGF-β1 (5 μg/L) for 24 h, promoting their transdifferentiation into proto-myofibroblasts. Thereafter, cells were treated with celastrol or amphotericin B in the presence or absence of TGF-β1 (5 μg/L) for an additional 48 h. Negative controls treated with solvent only were included for every sampling time. The final DMSO content of 0.04% (v/v) was kept constant in all inhibition experiments. […]
(§1) The RNA extraction from cell lysates and cDNA synthesis for mRNA and miRNA expression analysis were performed as described previously.
(§2) Quantitative real-time polymerase chain reaction (qRT-PCR) analysis using a LightCycler 480 Instrument II system (Roche, Basel, Swiss) was performed as previously described. The qRT-PCR experiments were conducted with three biological and three technical replicates per donor-derived primary cell culture, unless otherwise stated. The intron-spanning primer sequences used are listed in [7] and Table 1. The geometric mean of the expression levels of the housekeeping genes SDHA, RPL13A and B2M were calculated for expression normalization. The relative target gene mRNA expressions were determined by the ΔΔCT method considering the PCR efficiency. All normalized gene expression levels shown were referred to the respective target gene expression of one primary cell culture sample for the relative comparison of multiple biological samples per experiment and figures.

[2] = target: T1, XT-I (Homo sapiens, UniProt Q86Y38); assay: Enzyme and inhibition kinetics (mode of inhibition), UPLC/ESI-MS/MS XT-I assay; format: biochemical; details: inhibitor at IC50 concentration; for Vmax: Figure 2, modified acceptor peptide varied, 15 μM UDP-D-xylose, Michaelis-Menten; for Vmax [AU]: Table S2, Michaelis-Menten plot, nonlinear regression
T1 sequence (Q86Y38 260-959 limits assumed): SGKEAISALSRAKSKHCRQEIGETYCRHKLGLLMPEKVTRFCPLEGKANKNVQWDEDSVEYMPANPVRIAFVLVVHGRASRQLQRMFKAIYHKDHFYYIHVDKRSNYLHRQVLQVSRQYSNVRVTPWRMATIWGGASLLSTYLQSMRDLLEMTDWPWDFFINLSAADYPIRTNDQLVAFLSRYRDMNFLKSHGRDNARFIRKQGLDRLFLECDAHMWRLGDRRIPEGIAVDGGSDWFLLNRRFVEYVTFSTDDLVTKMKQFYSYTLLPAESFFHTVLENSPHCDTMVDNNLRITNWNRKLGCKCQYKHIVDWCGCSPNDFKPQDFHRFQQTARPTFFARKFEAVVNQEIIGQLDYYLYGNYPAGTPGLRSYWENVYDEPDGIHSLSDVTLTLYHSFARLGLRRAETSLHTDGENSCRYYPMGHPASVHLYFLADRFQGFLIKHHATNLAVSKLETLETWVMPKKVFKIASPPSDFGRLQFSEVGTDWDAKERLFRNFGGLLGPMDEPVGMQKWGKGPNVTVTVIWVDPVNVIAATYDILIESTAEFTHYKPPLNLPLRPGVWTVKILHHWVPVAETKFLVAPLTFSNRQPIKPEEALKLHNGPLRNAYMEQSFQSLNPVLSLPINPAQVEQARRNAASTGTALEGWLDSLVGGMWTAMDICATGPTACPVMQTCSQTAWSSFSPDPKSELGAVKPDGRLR
Source text: The measurement of relative XT-I activity among different samples is based on the XT-catalyzed incorporation of xylose from UDP-D-xylose on a modified bikunin-derived peptide after a fixed reaction time. The assay was originally developed for the determination of XT activity in human- or cell-culture-derived samples [13] by ultra-performance liquid chromatography/electrospray ionization tandem mass spectrometry (UPLC/ESI-MS/MS). The UPLC/ESI-MS/MS XT assay was recently modified toward a XT-I selective activity determination in human serum and cell culture samples (unpublished data). The relative intensities of the xylosylated peptide species abundance obtained with the respective m/z ratio were directly proportional to the relative XT-I activity of the sample. The XT-I activity determined is expressed in arbitrary units and normalized to the total protein content per 1 mL sample volume in cell culture approaches. A calibrator probe with a fixed amount of recombinant XT-I enzyme was included in every UPLC-MS/MS XT-I assay for assay comparability across multiple runs. The assay reaction mixture (50 μL) contained 50% (v/v) of the respective XT-I enzyme solution and 50% (v/v) reaction buffer. The final XT-I assay contained 25 mM MES buffer (pH 6.5), 25 mM KF buffer, 5 mM MnCl2, 5 mM MgCl2, 7.0 μM modified acceptor peptide and 30 μM UDP-D-xylose. The sample preparation for UPLC/ESI-MS/MS was performed according to [13]. In brief, after sample incubation at 37 °C for 24 h, the reaction was stopped by heating at 99 °C for 10 min. After centrifugation (10,000× g, 10 min) the supernatant was diluted fivefold with UPLC water for analysis. All cell-based XT-I assays were carried out in three biological and three technical replicates per donor-derived primary cell culture, while the XT-I activity determination for screening or kinetic purposes was carried out at least in technical duplicates.
The mode of inhibition (MOI) study was performed by evaluating the inhibitors’ impact on the enzyme parameters’ Michaelis constant Km and the maximum activity Vmax. In order to determine the enzyme and inhibition kinetics, XT-I activity determination of the recombinant XT-I protein solution with and without inhibitor supplementation was carried out in the presence of different acceptor peptide concentrations ranging from 1 to 30 μM. […] The Km and Vmax were determined with the Michaelis–Menten equation and nonlinear regression analysis, while the slope and Y-intersection values were determined by a Lineweaver–Burk plot and simple linear regression using GraphPad Prism 8.0 (GraphPad Software, La Jolla, United States) software.

[3] = test system: XYLT2 mRNA expression; assay: XYLT2 mRNA expression in NHDFs by qRT-PCR; format: cell-based, human; details: 48 h
Description: A former established cell culture model was utilized to investigate the effect of putative XT-I inhibitors on NHDFs. The inhibition studies were carried out with final inhibitor concentrations of 0.5, 1.0, 2.0 or 4.0 μM diluted in fully supplemented DMEM. In brief, unless otherwise stated, NHDFs were cultivated with a low density of 50 cells per mm^2 on a hard tissue culture substrate (100 × 20 mm dish) in fully supplemented DMEM with or without additional TGF-β1 (5 μg/L) for 24 h, promoting their transdifferentiation into proto-myofibroblasts. Thereafter, cells were treated with celastrol or amphotericin B in the presence or absence of TGF-β1 (5 μg/L) for an additional 48 h. Negative controls treated with solvent only were included for every sampling time. The final DMSO content of 0.04% (v/v) was kept constant in all inhibition experiments.
as §1, §2

SMILES	TGF-β1-mediated XYLT1 mRNA expression relative to TGF-β1 only ([1]; 0.5 μM)	basal XYLT1 mRNA expression relative to control ([1]; 0.5 μM, without TGF-β1)	TGF-β1-mediated XYLT1 mRNA expression relative to TGF-β1 only ([1]; 1.0 μM) [fold]	basal XYLT1 mRNA expression relative to control ([1]; 1.0 μM, without TGF-β1) [fold]	TGF-β1-mediated XYLT1 mRNA expression relative to TGF-β1 only ([1]; 2.0 μM) [fold]	basal XYLT1 mRNA expression relative to DMSO control ([1]; 2.0 μM, without TGF-β1) [fold]	Vmax [2]	Vmax [AU] [2] [AU]	mode of inhibition (MOI) regarding the acceptor peptide [2]	XYLT2 mRNA expression level ([3]; 2.0 μM with TGF-β1 (5 μg/L), versus TGF-β1 only)	XYLT2 mRNA expression level ([3]; 1.0 μM in the presence of TGF-β1 (5 μg/L))
C[C@@H]1[C@H](O)[C@@H](C)/C=C/C=C/C=C/C=C/C=C/C=C/C=C/[C@H](O[C@@H]2O[C@H](C)[C@@H](O)[C@H](N)[C@@H]2O)C[C@@H]2O[C@](O)(C[C@@H](O)C[C@@H](O)[C@H](O)CC[C@@H](O)C[C@@H](O)CC(=O)O[C@H]1C)C[C@H](O)[C@H]2C(=O)O [Compound 17, Amphotericin B]	0.9 ± 0.07 fold	0.6 ± 0.06 fold	0.8 ± 0.06	0.6 ± 0.05	0.7 ± 0.03	0.6 ± 0.09	10 ± 0.4 ·10^3 AU	10031 ± 388	uncompetitive	did not differ	–
CC1=C(O)C(=O)C=C2C1=CC=C1[C@@]2(C)CC[C@@]2(C)[C@@H]3C[C@](C)(C(=O)O)CC[C@]3(C)CC[C@]12C [Compound 68, Celastrol]	nor effected	neither changed	0.8 ± 0.07	0.8 ± 0.06	–	–	12 ± 0.6 ·10^3 AU	11826 ± 551	competitive	–	did not alter
